According to PubChem BioAssay (NCI):
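Exposure lasted 48 hours, with cells grown in 96-well plates and compounds tested at five concentrations. GI50: concentration for 50% inhibition of growth. TGI denotes the concentration required for complete inhibition of growth.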

Assays:
Test in all cases: NCI-60 cell line screen, 48 h
M14 melanoma = tested on: M14 melanoma
SN12C renal = tested on: SN12C renal
PC-3 prostate = tested on: PC-3 prostate
NCI-H460 lung = tested on: NCI-H460 lung
SW-620 colon = tested on: SW-620 colon
SK-OV-3 ovarian = tested on: SK-OV-3 ovarian
MALME-3M melanoma = tested on: MALME-3M melanoma
KM12 colon = tested on: KM12 colon
BT-549 breast = tested on: BT-549 breast
RXF 393 renal = tested on: RXF 393 renal
MCF7 breast = tested on: MCF7 breast
UACC-257 melanoma = tested on: UACC-257 melanoma
A498 renal = tested on: A498 renal
HCT-116 colon = tested on: HCT-116 colon
SF-539 CNS = tested on: SF-539 CNS
SR leukemia = tested on: SR leukemia
HT29 colon = tested on: HT29 colon
OVCAR-5 ovarian = tested on: OVCAR-5 ovarian
U251 CNS = tested on: U251 CNS
CCRF-CEM leukemia = tested on: CCRF-CEM leukemia
SF-268 CNS = tested on: SF-268 CNS
COLO 205 colon = tested on: COLO 205 colon
SNB-19 CNS = tested on: SNB-19 CNS
K-562 leukemia = tested on: K-562 leukemia
NCI-H23 lung = tested on: NCI-H23 lung
SK-MEL-2 melanoma = tested on: SK-MEL-2 melanoma
HCT-15 colon = tested on: HCT-15 colon
HS 578T breast = tested on: HS 578T breast
UACC-62 melanoma = tested on: UACC-62 melanoma
EKVX NSCLC = tested on: EKVX NSCLC
HCC-2998 colon = tested on: HCC-2998 colon
RPMI-8226 leukemia = tested on: RPMI-8226 leukemia
OVCAR-3 ovarian = tested on: OVCAR-3 ovarian
TK-10 renal = tested on: TK-10 renal
SK-MEL-5 melanoma = tested on: SK-MEL-5 melanoma
MDA-MB-435 = tested on: MDA-MB-435
UO-31 renal = tested on: UO-31 renal
786-0 renal = tested on: 786-0 renal
OVCAR-8 ovarian = tested on: OVCAR-8 ovarian
DU-145 prostate = tested on: DU-145 prostate
T-47D breast = tested on: T-47D breast
MOLT-4 leukemia = tested on: MOLT-4 leukemia
SF-295 CNS = tested on: SF-295 CNS
SK-MEL-28 melanoma = tested on: SK-MEL-28 melanoma
MDA-MB-231 breast = tested on: MDA-MB-231 breast
HOP-62 NSCLC = tested on: HOP-62 NSCLC
HOP-92 NSCLC = tested on: HOP-92 NSCLC
NCI-H522 lung = tested on: NCI-H522 lung
CAKI-1 renal = tested on: CAKI-1 renal
NCI/ADR-RES ovarian = tested on: NCI/ADR-RES ovarian
ACHN renal = tested on: ACHN renal
A549 NSCLC = tested on: A549 NSCLC

COc1ccc2cc(C(=O)/C=C/c3ccc(Cl)cc3Cl)ccc2c1
GI50 (M14 melanoma): 8.75 µM
TGI (M14 melanoma): 28 µM
GI50 (SN12C renal): 25.9 µM
TGI (SN12C renal): 67.9 µM
GI50 (PC-3 prostate): 30.8 µM
TGI (PC-3 prostate): > 100 µM
GI50 (NCI-H460 lung): 70.7 µM
TGI (NCI-H460 lung): > 100 µM
GI50 (SW-620 colon): 7.83 µM
TGI (SW-620 colon): 25.5 µM
GI50 (SK-OV-3 ovarian): 61.6 µM
TGI (SK-OV-3 ovarian): > 100 µM
GI50 (MALME-3M melanoma): 23.5 µM
TGI (MALME-3M melanoma): > 100 µM
GI50 (KM12 colon): 14.3 µM
TGI (KM12 colon): 35 µM
GI50 (BT-549 breast): 0.963 µM
TGI (BT-549 breast): 4.6 µM
GI50 (RXF 393 renal): 4.52 µM
TGI (RXF 393 renal): 14.5 µM
GI50 (MCF7 breast): 18.1 µM
TGI (MCF7 breast): > 100 µM
GI50 (UACC-257 melanoma): 20 µM
TGI (UACC-257 melanoma): 55 µM
GI50 (A498 renal): 19.8 µM
TGI (A498 renal): 36 µM
GI50 (HCT-116 colon): 3.04 µM
TGI (HCT-116 colon): 10.3 µM
GI50 (SF-539 CNS): 3.98 µM
TGI (SF-539 CNS): 13.7 µM
GI50 (SR leukemia): 3.67 µM
TGI (SR leukemia): 17.3 µM
GI50 (HT29 colon): 6.63 µM
TGI (HT29 colon): 51.3 µM
GI50 (OVCAR-5 ovarian): 48.4 µM
TGI (OVCAR-5 ovarian): > 100 µM
GI50 (U251 CNS): 16.7 µM
TGI (U251 CNS): 36.2 µM
GI50 (CCRF-CEM leukemia): 6.74 µM
TGI (CCRF-CEM leukemia): > 100 µM
GI50 (SF-268 CNS): > 100 µM
TGI (SF-268 CNS): > 100 µM
GI50 (COLO 205 colon): 20.3 µM
TGI (COLO 205 colon): 55.7 µM
GI50 (SNB-19 CNS): 25.7 µM
TGI (SNB-19 CNS): 71.5 µM
GI50 (K-562 leukemia): 2.53 µM
TGI (K-562 leukemia): 14.5 µM
GI50 (NCI-H23 lung): 20.5 µM
TGI (NCI-H23 lung): 53.4 µM
GI50 (SK-MEL-2 melanoma): 44.4 µM
TGI (SK-MEL-2 melanoma): 95.7 µM
GI50 (HCT-15 colon): 9.17 µM
TGI (HCT-15 colon): 29.7 µM
GI50 (HS 578T breast): 28.1 µM
TGI (HS 578T breast): 73.7 µM
GI50 (UACC-62 melanoma): 12 µM
TGI (UACC-62 melanoma): 86.5 µM
GI50 (EKVX NSCLC): 9.79 µM
TGI (EKVX NSCLC): 26.4 µM
GI50 (HCC-2998 colon): 15.3 µM
TGI (HCC-2998 colon): 29.1 µM
GI50 (RPMI-8226 leukemia): 6.81 µM
TGI (RPMI-8226 leukemia): > 100 µM
GI50 (OVCAR-3 ovarian): 16.8 µM
TGI (OVCAR-3 ovarian): 43.9 µM
GI50 (TK-10 renal): 27.7 µM
TGI (TK-10 renal): > 100 µM
GI50 (SK-MEL-5 melanoma): 12.1 µM
TGI (SK-MEL-5 melanoma): 29.9 µM
GI50 (MDA-MB-435): 4.5 µM
TGI (MDA-MB-435): 17.7 µM
GI50 (UO-31 renal): 15.5 µM
TGI (UO-31 renal): 32.3 µM
GI50 (786-0 renal): 8.13 µM
TGI (786-0 renal): 24.3 µM
GI50 (OVCAR-8 ovarian): 14.8 µM
TGI (OVCAR-8 ovarian): 30.4 µM
GI50 (DU-145 prostate): 23 µM
TGI (DU-145 prostate): 62.1 µM
GI50 (T-47D breast): 20.8 µM
TGI (T-47D breast): 66.8 µM
GI50 (MOLT-4 leukemia): 4.01 µM
TGI (MOLT-4 leukemia): 17.7 µM
GI50 (SF-295 CNS): 35.9 µM
TGI (SF-295 CNS): > 100 µM
GI50 (SK-MEL-28 melanoma): 29.9 µM
TGI (SK-MEL-28 melanoma): > 100 µM
GI50 (MDA-MB-231 breast): 44.6 µM
TGI (MDA-MB-231 breast): > 100 µM
GI50 (HOP-62 NSCLC): 24 µM
TGI (HOP-62 NSCLC): 50.8 µM
GI50 (HOP-92 NSCLC): > 100 µM
TGI (HOP-92 NSCLC): > 100 µM
GI50 (NCI-H522 lung): 32.8 µM
TGI (NCI-H522 lung): 85.5 µM
GI50 (CAKI-1 renal): 15.8 µM
TGI (CAKI-1 renal): 70 µM
GI50 (NCI/ADR-RES ovarian): 23 µM
TGI (NCI/ADR-RES ovarian): > 100 µM
GI50 (ACHN renal): 15.1 µM
TGI (ACHN renal): 51.3 µM
GI50 (A549 NSCLC): 14.1 µM
TGI (A549 NSCLC): 31.9 µM
